In ChEMBL document CHEMBL1130879, “trans-3-Benzyl-4-hydroxy-7-chromanylbenzoic acid derivatives as antagonists of the leukotriene B4 (LTB4) receptor” (Bioorg Med Chem Lett, 1998):

Legend:
Leukotriene B4 receptor [1] = biological target: T1, Leukotriene B4 receptor (Homo sapiens, UniProt Q9NPC1+Q15722); test: Ability to inhibit LTB4-induced chemotaxis of isolated human neutrophils.; type: functional
Leukotriene B4 receptor [2] = biological target: T1, Leukotriene B4 receptor; test: Ability to inhibit LTB4 binding to LTB receptors on isolated human neutrophils.; type: protein assay
[3] = biological target: Leukotriene B4 receptor (Cavia porcellus); test: Compound was evaluated for its ability to inhibit [3H]LTB4 binding to LTB4 receptors on guinea pig spleen membranes
Leukotriene B4 receptor [4] = biological target: T1, Leukotriene B4 receptor; test: Ability to inhibit LTB4-induced CD11b up-regulation on isolated human neutrophils in whole blood; type: functional, tissue-based
Leukotriene B4 receptor [5] = biological target: T1, Leukotriene B4 receptor; test: Ability to inhibit LTB4-induced CD11b up-regulation on isolated human neutrophils; type: functional
[6] = Ratio of CD11b(WB) IC50 to CD11b (IC)IC50; type: functional

| Compound | IC50 (Leukotriene B4 receptor [1]) | IC50 (Leukotriene B4 receptor [2]) | IC50 [3] | IC50 (Leukotriene B4 receptor [4]) | IC50 (Leukotriene B4 receptor [5]) | Ratio [6] |
| --- | --- | --- | --- | --- | --- | --- |
| CNC(=O)c1ccc(C(=O)O)c(-c2ccc3c(c2)OC[C@H](Cc2ccccc2)[C@H]3O)c1 |  |  | 4700 nM |  |  |  |
| CC(C)c1ccc(C[C@H]2COc3cc(-c4cc(F)ccc4C(=O)O)ccc3[C@@H]2O)cc1 | 210 nM | 190 nM |  |  |  |  |
| O=C(O)c1ccc(Cl)cc1-c1ccc2c(c1)OC[C@H](Cc1ccc(F)cc1)[C@H]2O | 400 nM | 54 nM |  |  |  |  |
| O=C(O)c1ccc(Cl)cc1-c1ccc2c(c1)OC[C@H](Cc1ccc3ccccc3c1)[C@H]2O | 2250 nM | 100 nM |  |  |  |  |
| O=C(O)c1cc(F)ccc1-c1ccc2c(c1)OC[C@H](Cc1ccccc1)[C@H]2O | 300 nM | 24 nM |  |  |  |  |
| O=C(O)c1c(F)cc(F)cc1-c1ccc2c(c1)OC[C@H](Cc1ccccc1)[C@H]2O | 40 nM | 5 nM |  | 200 nM | 300 nM | 0.7 |
| O=C(O)c1ccc(F)cc1-c1ccc2c(c1)OC[C@H](CCc1ccccc1)[C@H]2O | 32 nM | 35 nM |  |  |  |  |
| NS(=O)(=O)c1ccc(F)cc1-c1ccc2c(c1)OC[C@H](Cc1ccccc1)[C@H]2O | 17 nM | 37 nM |  | > 10000 nM | 540 nM |  |
| O[C@H]1c2ccc(-c3cc(F)ccc3-c3nn[nH]n3)cc2OC[C@@H]1Cc1ccccc1 | 110 nM | 20 nM |  |  |  |  |
| COC(=O)c1ccc(Cl)cc1-c1ccc2c(c1)OC[C@H](Cc1ccccc1)[C@H]2O | 6400 nM | 1700 nM |  |  |  |  |
| O=C(O)c1ccccc1-c1ccc2c(c1)OC[C@H](Cc1ccccc1)[C@H]2O |  |  | 120 nM |  |  |  |
| O=C(O)c1ccc(Cl)cc1-c1ccc2c(c1)OC[C@H](Cc1ccccc1)[C@H]2O (stereo in doubt; 6) [listing 2 of 2 here] |  |  |  |  |  | 4.9 |
| O=C(O)c1ccc(F)cc1-c1ccc2c(c1)OC[C@H](Cc1ccccc1)[C@H]2O (stereo in doubt; 9) [listing 2 of 2 here] |  |  |  |  |  | 2.5 |
| O=C(O)c1ccc(F)cc1-c1ccc2c(c1)OC[C@H](Cc1ccccc1)[C@H]2O (stereo in doubt; 10) [listing 2 of 2 here] |  |  |  |  |  | 1.2 |
| O=C(O)c1c(F)cccc1-c1ccc2c(c1)OC[C@H](Cc1ccccc1)[C@H]2O (stereo in doubt; 12) | 10 nM | 22 nM |  |  |  |  |
| O=C(O)c1c(F)cccc1-c1ccc2c(c1)OC[C@H](Cc1ccccc1)[C@H]2O (stereo in doubt; 13) [listing 1 of 2 here] | 40 nM | 11 nM |  | 1000 nM | 400 nM |  |

| Compound | IC50 (Leukotriene B4 receptor [1]) | IC50 (Leukotriene B4 receptor [2]) | IC50 [3] | IC50 (Leukotriene B4 receptor [4]) | IC50 (Leukotriene B4 receptor [5]) | Ratio [6] |
| --- | --- | --- | --- | --- | --- | --- |
| O=C(O)c1c(F)cccc1-c1ccc2c(c1)OC[C@H](Cc1ccccc1)[C@H]2O (stereo in doubt; 13) [listing 2 of 2 here] |  |  |  |  |  | 2.5 |
| O=C(O)c1c(F)cccc1-c1ccc2c(c1)OC[C@H](Cc1ccccc1)[C@H]2O (stereo in doubt; 14) | 650 nM | 240 nM |  |  |  |  |
| O=C(O)c1ccc(C(F)(F)F)cc1-c1ccc2c(c1)OC[C@H](Cc1ccccc1)[C@H]2O (stereo in doubt; 16) |  |  |  |  |  | 2.3 |
| O=C(O)c1ccc(Cl)cc1-c1ccc2c(c1)OC[C@H](Cc1ccc(-c3ccccc3)cc1)[C@H]2O (stereo in doubt; 22) [listing 1 of 2 here] | 6 nM | 4 nM |  | 1700 nM | 520 nM |  |
| O=C(O)c1ccc(Cl)cc1-c1ccc2c(c1)OC[C@H](Cc1ccc(-c3ccccc3)cc1)[C@H]2O (stereo in doubt; 22) [listing 2 of 2 here] |  |  |  |  |  | 3.3 |
| O=C(O)c1ccc(Cl)cc1-c1ccc2c(c1)OC[C@H](Cc1ccc(-c3ccccc3)cc1)[C@H]2O (stereo in doubt; 23) [listing 1 of 2 here] | 26 nM | 8 nM |  | 3900 nM | 590 nM |  |
| O=C(O)c1ccc(Cl)cc1-c1ccc2c(c1)OC[C@H](Cc1ccc(-c3ccccc3)cc1)[C@H]2O (stereo in doubt; 23) [listing 2 of 2 here] |  |  |  |  |  | 6.6 |
| O=C(O)c1ccc(F)cc1-c1ccc2c(c1)OC[C@H](Cc1ccc(-c3ccccc3)cc1)[C@H]2O (stereo in doubt; 24) [listing 1 of 2 here] | 56 nM | 4 nM |  | 700 nM | 280 nM |  |
| O=C(O)c1ccc(F)cc1-c1ccc2c(c1)OC[C@H](Cc1ccc(-c3ccccc3)cc1)[C@H]2O (stereo in doubt; 24) [listing 2 of 2 here] |  |  |  |  |  | 2.5 |
| O=C(O)c1ccc(F)cc1-c1ccc2c(c1)OC[C@H](Cc1ccc(-c3ccccc3)cc1)[C@H]2O (stereo in doubt; 25) [listing 1 of 2 here] | 5 nM | 14 nM |  | 5100 nM | 700 nM |  |
| O=C(O)c1ccc(F)cc1-c1ccc2c(c1)OC[C@H](Cc1ccc(-c3ccccc3)cc1)[C@H]2O (stereo in doubt; 25) [listing 2 of 2 here] |  |  |  |  |  | 7.3 |
| O=C(O)c1ccc(C(F)(F)F)cc1-c1ccc2c(c1)OC[C@H](Cc1ccc(-c3ccccc3)cc1)[C@H]2O (stereo in doubt; 26) [listing 2 of 2 here] |  |  |  |  |  | 15.8 |
| O=C(O)c1ccc(C(F)(F)F)cc1-c1ccc2c(c1)OC[C@H](Cc1ccc(-c3ccccc3)cc1)[C@H]2O (stereo in doubt; 27) [listing 2 of 2 here] |  |  |  |  |  | 4.9 |
| O=S(=O)(Nc1ccc(F)cc1-c1ccc2c(c1)OC[C@H](Cc1ccccc1)[C@H]2O)C(F)(F)F (stereo in doubt; 38) [listing 1 of 2 here] | 15 nM | 3.8 nM |  | 330 nM | 360 nM |  |
| O=S(=O)(Nc1ccc(F)cc1-c1ccc2c(c1)OC[C@H](Cc1ccccc1)[C@H]2O)C(F)(F)F (stereo in doubt; 38) [listing 2 of 2 here] |  |  |  |  |  | 0.9 |
| O=S(=O)(Nc1ccc(F)cc1-c1ccc2c(c1)OC[C@H](Cc1ccccc1)[C@H]2O)C(F)(F)F (stereo in doubt; 39) | 44 nM | 50 nM |  | > 3000 nM | > 3000 nM |  |

Second part, led by results:

| IC50 (Leukotriene B4 receptor [1]) | IC50 (Leukotriene B4 receptor [2]) | IC50 [3] | IC50 (Leukotriene B4 receptor [4]) | IC50 (Leukotriene B4 receptor [5]) | Compound | Ratio [6] |
| --- | --- | --- | --- | --- | --- | --- |
| 1800 nM | 54 nM |  |  |  | O=C(O)c1ccc(F)cc1-c1ccc2c(c1)OC[C@H](Cc1ccc(C(F)(F)F)cc1)[C@H]2O |  |
| 24 nM | 46 nM |  | 890 nM | 750 nM | O=C(O)c1c(-c2ccc3c(c2)OC[C@H](Cc2ccccc2)[C@H]3O)cccc1C(F)(F)F | 1.2 |
| 9000 nM | 400 nM |  |  |  | O=C(O)c1ccc(Cl)cc1-c1ccc2c(c1)OC[C@H](Cc1ccc(C(F)(F)F)cc1)[C@H]2O |  |
|  |  | 160 nM |  |  | COc1ccc(C(=O)O)c(-c2ccc3c(c2)OC[C@H](Cc2ccccc2)[C@H]3O)c1 |  |
| 9 nM | 1700 nM |  |  |  | OCc1ccc(C(F)(F)F)cc1-c1ccc2c(c1)OC[C@H](Cc1ccccc1)[C@H]2O |  |
| 58 nM | 70 nM |  |  |  | O=C(O)c1ccc(C(F)(F)F)cc1-c1ccc2c(c1)OC[C@H](Cc1ccc(Cl)cc1)[C@H]2O |  |
|  |  | > 1000 nM |  |  | O=C(O)c1ccc(C(=O)O)c(-c2ccc3c(c2)OC[C@H](Cc2ccccc2)[C@H]3O)c1 |  |
| 26 nM | 12 nM | 59 nM |  |  | O=C(O)c1ccc(Cl)cc1-c1ccc2c(c1)OC[C@H](Cc1ccccc1)[C@H]2O (stereo in doubt; 5) |  |
| 30 nM | 14 nM |  | 1300 nM | 265 nM | O=C(O)c1ccc(Cl)cc1-c1ccc2c(c1)OC[C@H](Cc1ccccc1)[C@H]2O (stereo in doubt; 6) [listing 1 of 2 here] |  |
| 83 nM | 200 nM |  |  |  | O=C(O)c1ccc(Cl)cc1-c1ccc2c(c1)OC[C@H](Cc1ccccc1)[C@H]2O (stereo in doubt; 7) |  |
| 5 nM | 12 nM |  |  |  | O=C(O)c1ccc(F)cc1-c1ccc2c(c1)OC[C@H](Cc1ccccc1)[C@H]2O (stereo in doubt; 8) |  |
| 14 nM | 3 nM |  | 600 nM | 240 nM | O=C(O)c1ccc(F)cc1-c1ccc2c(c1)OC[C@H](Cc1ccccc1)[C@H]2O (stereo in doubt; 9) [listing 1 of 2 here] |  |
| 5 nM | 27 nM |  | 3500 nM | 3000 nM | O=C(O)c1ccc(F)cc1-c1ccc2c(c1)OC[C@H](Cc1ccccc1)[C@H]2O (stereo in doubt; 10) [listing 1 of 2 here] |  |
| 7 nM | 13 nM |  |  |  | O=C(O)c1ccc(C(F)(F)F)cc1-c1ccc2c(c1)OC[C@H](Cc1ccccc1)[C@H]2O (stereo in doubt; 15) [CP-195543] |  |
| 2.4 nM | 6.8 nM |  | 660 nM | 280 nM | O=C(O)c1ccc(C(F)(F)F)cc1-c1ccc2c(c1)OC[C@H](Cc1ccccc1)[C@H]2O (stereo in doubt; 16) [CP-195543] |  |
| 2 nM | 56 nM |  |  |  | O=C(O)c1ccc(C(F)(F)F)cc1-c1ccc2c(c1)OC[C@H](Cc1ccccc1)[C@H]2O (stereo in doubt; 17) [CP-195543] |  |
| 6 nM | 38 nM |  | 1900 nM | 120 nM | O=C(O)c1ccc(C(F)(F)F)cc1-c1ccc2c(c1)OC[C@H](Cc1ccc(-c3ccccc3)cc1)[C@H]2O (stereo in doubt; 26) [listing 1 of 2 here] |  |
| 7 nM | 27 nM |  | 4000 nM | 820 nM | O=C(O)c1ccc(C(F)(F)F)cc1-c1ccc2c(c1)OC[C@H](Cc1ccc(-c3ccccc3)cc1)[C@H]2O (stereo in doubt; 27) [listing 1 of 2 here] |  |
